Columns and labels:
[1] = test system: Murine J744.1 macrophages; experiment: Cell assay: detection of peroxynitrite in living cells by fluorescent microscopy; format: cell-based; settings: for fluorescence observed in the absence of stimulants: J744.1 macrophages incubated with 20 μM probe for 1 hr
Procedure: (§1) Murine J744.1 macrophages (ATCC, USA) were used to investigate the potential of Compound 22 (acetate form of Compound 10) for the detection of peroxynitrite in living cells. J744.1 macrophages were cultured in Dulbecco's Modified Eagle's Medium (DMEM) (Gibco) containing 10% heat-inactivated fetal bovine serum (Gibco) supplemented with 100 U/ml of penicillin and 100 μg/ml streptomycin at 37° C., 5% CO2. They were subcultured by scraping and seeded on six-well plates according to manufacture's instruction. The growth medium was changed every two to three days. Cells were grown to confluence prior to experiment. Murine J744.1 macrophages were incubated with Compound 22 (20 μM) for 1 hr and then washed three times with PBS buffer.
as §1, with “12 and 12a” for “22 (acetate form of Compound 10)”, “12 or 12a” for “22”, “buffer. […] The fluorescence was induced after treatment with LPS (lipopolysaccharide, 1 μg/ml) for 4 hrs (FIG. 9D and FIG. 10B).” for “buffer.”

[2] = UV-visible absorption spectrum; format: physicochemical; settings: 10 μM solution, pH 7.4 0.1 M phosphate buffer, 0.1% DMF
Procedure: Compound 10 obtained in Example 4 was dissolved in pH 7.4 0.1 M phosphate buffer containing 0.1% DMF as cosolvent to form a 10 μM solution.
Compound 12 obtained in Example 5 was dissolved in pH 7.4 0.1 M phosphate buffer containing 0.1% DMF as cosolvent to form a 1 μM solution.
Compound 14 obtained in Example 6 was dissolved in pH 7.4 0.1 M phosphate buffer containing 0.1% DMF as cosolvent to form a 1 μM solution.
Compound 30 obtained in Example 7 was dissolved in pH 7.4 0.1 M phosphate buffer containing 0.1% DMF as cosolvent to form a 10 μM solution. The absorption spectrum of the 10 μM solution of Compound 30 was measured.

[3] = Emission spectra of the probe itself; format: physicochemical; settings: 10 μM, 0.1 M phosphate buffer pH 7.4, excitation 520 nm, Hitachi F7000, 900 V
Procedure: (§2) Compound 10 obtained in Example 4 was dissolved in DMF to a concentration of 10 mM, and then the solution was diluted to 10 μM by 0.1 M phosphate buffer (pH 7.4). The fluorescence spectrum of the 10 μM solution of Compound 10 was measured using a Hitachi F2500 fluorescence spectrometer and the photomultiplier voltage was 700 V. The slit width was 2.5 nm for both excitation and emission. The measurement was carried out at an excitation wavelength of 520 nm. The results shown in FIG. 1 indicate that Compound 10 itself is non-fluorescent.
(§3) Compound 12 obtained in Example 5 was dissolved in DMF to a concentration of 1 mM, and then the solution was diluted to 1 μM by 0.1 M phosphate buffer (pH 7.4). The fluorescence spectrum of the 1 μM solution of Compound 12 was measured using a Hitachi F2500 fluorescence spectrometer and the photomultiplier voltage was 700 V. The slit width was 2.5 nm for both excitation and emission. The measurement was carried out at an excitation wavelength of 515 nm. The results shown in FIG. 4 indicate that Compound 12 itself is non-fluorescent.
as §3, with “Compound 14” for “Compound 12”, “Example 6” for “Example 5”, “FIG. 6” for “FIG. 4”
as §2, with “Compound 30” for “Compound 10”, “Example 7” for “Example 4”, “Hitachi F7000” for “Hitachi F2500”, “was 900” for “was 700”, “nm.” for “nm. The results shown in FIG. 1 indicate that Compound 10 itself is non-fluorescent.”

[4] = Detection of peroxynitrite: fluorescence spectra after addition of peroxynitrite; settings: 10 μM probe, 0.1 M potassium phosphate buffer pH 7.4, measured after 5 minutes, excitation 520 nm
Procedure: Compound 10 obtained in Example 4 was dissolved in DMF to a concentration of 10 mM, and then the solution was diluted to 10μM by 0.1 M potassium phosphate buffer (pH 7.4). Peroxynitrite solution in 0.1 M NaOH was prepared by the method of Keith and Powell (Keith, W. G. & Powell, R. E.; Kinetics of decomposition of peroxynitrous acid; J. Chem. Soc. A, 1969, 1, 90), and its concentration in the stock solutions used was estimated by using an extinction coefficient of 1670 cm^−1 (mol/L)^−1 at 302 nm (Hughes and Nicklin; The chemistry of pernitrites. Part I. Kinetics of decomposition of pernitrious acid; J. Chem. Soc. A, 1968, 2, 450-452). Peroxynitrite stock solution was added into the solution of Compound 10 to provide various final concentrations, like 0, 2, 6, 10, 20, 30, 50 100, and 200 μM. Fluorescence spectra of the solutions were measured after 5 minutes under the same conditions as mentioned above.
Compound 12 obtained in Example 5 was dissolved in DMF to a concentration of 1 mM, and then the solution was diluted to 1 μM by 0.1 M potassium phosphate buffer (pH 7.4). Peroxynitrite solution in 0.1 M NaOH was prepared by the method of Keith and Powell (Keith, W. G. & Powell, R. E.; Kinetics of decomposition of peroxynitrous acid; J. Chem. Soc. A, 1969, 1, 90), and its concentration in the stock solutions used was estimated by using an extinction coefficient of 1670 cm^−1 (mol/L)^−1 at 302 nm (Hughes and Nicklin; The chemistry of pernitrites. Part I. Kinetics of decomposition of pernitrious acid; J. Chem. Soc. A, 1968, 2, 450-452). Peroxynitrite stock solution was added into the solution of Compound 12 to provide various final concentrations, like 0, 1, 2, 3, 4, 5, 6, and 7 μM. Fluorescence spectra of the solutions were measured after 5 minutes under the same conditions as mentioned above.
Compound 30 obtained in Example 7 was dissolved in DMF to a concentration of 10 mM, and then the solution was diluted to 10 μM by 0.1 M potassium phosphate buffer (pH 7.4). Peroxynitrite solution in 0.1 M NaOH was prepared by the method of Keith and Powell (Keith, W. G. & Powell, R. E.; Kinetics of decomposition of peroxynitrous acid; J. Chem. Soc. A, 1969, 1, 90), and its concentration in the stock solutions used was estimated by using an extinction coefficient of 1670 cm^−1 (mol/L)^−1 at 302 nm (Hughes and Nicklin; The chemistry of pernitrites. Part I. Kinetics of decomposition of pernitrious acid; J. Chem. Soc. A, 1968, 2, 450-452). Peroxynitrite stock solution was added into the solution of Compound 30 to provide various final concentrations. Fluorescence spectra of the solutions were measured after 5 minutes under the same conditions as mentioned above.

Structure (SMILES)	fluorescence after treatment with LPS ([1]; 20 μM probe 1 hr, LPS 1 μg/ml for 4 hrs)	fluorescence observed in the absence of stimulants [1]	fluorescence after treatment with LPS and IFN-γ ([1]; 20 μM probe 1 hr, LPS 1 μg/ml and IFN-γ 50 ng/ml for 4 hrs)	fluorescence after additional stimulation by PMA ([1]; 20 μM probe 1 hr, LPS and IFN-γ 4 hrs, then PMA 10 nM for half an hour)	suitability for detection of peroxynitrite in stimulated macrophages ([1]; stimulated Murine J744.1 macrophages)	absorption maximum [2]	fluorescence of the probe itself [3]	fluorescence intensity after the addition of peroxynitrite [4]
CC(=O)Oc1ccc(N(C)c2ccc3c(c2)Oc2cc(OC(C)=O)ccc2C32OC(=O)c3ccccc32)cc1 (stereo not drawn) [Compound 12a]	induced	very weak fluorescence						
CC(=O)Oc1cc2c(cc1Cl)C1(OC(=O)c3ccccc31)c1cc(Cl)c(N(C)c3ccc(CCC(=O)C(F)(F)F)cc3)cc1O2 (stereo not drawn) [Compound 22]		very weak fluorescence	induced	strong fluorescence	suitable for the detection of peroxynitrite			
CN(c1ccc(O)cc1)c1ccc2c(ccc3c(-c4ccccc4C(=O)O)c4cc(Cl)c(=O)cc-4oc32)c1 [Compound 30]						about 540 nm	may be non-fluorescent	increases significantly
